# Measured values published in patent US7250492B2, “Compositions and methods for inhibition of cancer invasion and angiogenesis” (The Research Foundation at State University of New York, priority 2000, dated 2007).
# Assays:
# seprase = molecular target: T1, seprase (Homo sapiens, UniProt Q12884); conditions: cited from earlier work
# T1 sequence (Q12884 1-760): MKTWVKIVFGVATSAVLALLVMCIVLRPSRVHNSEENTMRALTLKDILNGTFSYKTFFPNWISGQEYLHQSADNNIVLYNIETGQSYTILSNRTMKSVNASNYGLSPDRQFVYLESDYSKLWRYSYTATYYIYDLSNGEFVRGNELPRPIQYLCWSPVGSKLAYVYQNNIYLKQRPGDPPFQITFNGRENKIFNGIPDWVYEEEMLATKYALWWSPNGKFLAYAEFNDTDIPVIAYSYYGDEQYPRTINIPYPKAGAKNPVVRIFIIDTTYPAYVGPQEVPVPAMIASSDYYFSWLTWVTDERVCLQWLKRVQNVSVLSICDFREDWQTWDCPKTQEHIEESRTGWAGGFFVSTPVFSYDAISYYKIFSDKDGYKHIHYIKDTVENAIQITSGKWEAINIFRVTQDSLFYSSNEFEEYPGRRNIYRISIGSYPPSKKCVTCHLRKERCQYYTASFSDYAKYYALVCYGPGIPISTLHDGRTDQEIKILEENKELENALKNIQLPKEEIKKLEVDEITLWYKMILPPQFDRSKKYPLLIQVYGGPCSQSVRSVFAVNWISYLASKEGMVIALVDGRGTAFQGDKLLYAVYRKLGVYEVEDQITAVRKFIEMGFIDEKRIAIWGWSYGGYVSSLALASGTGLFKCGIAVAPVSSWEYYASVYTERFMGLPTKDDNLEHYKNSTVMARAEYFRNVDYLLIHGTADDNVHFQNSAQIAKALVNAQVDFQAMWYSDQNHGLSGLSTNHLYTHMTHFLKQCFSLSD
# DPPIV = DPPIV (Homo sapiens, UniProt P27487); conditions: reversible DPPIV inhibitor; cited from earlier work
# Sequence of DPPIV (P27487 whole entry, species assumed): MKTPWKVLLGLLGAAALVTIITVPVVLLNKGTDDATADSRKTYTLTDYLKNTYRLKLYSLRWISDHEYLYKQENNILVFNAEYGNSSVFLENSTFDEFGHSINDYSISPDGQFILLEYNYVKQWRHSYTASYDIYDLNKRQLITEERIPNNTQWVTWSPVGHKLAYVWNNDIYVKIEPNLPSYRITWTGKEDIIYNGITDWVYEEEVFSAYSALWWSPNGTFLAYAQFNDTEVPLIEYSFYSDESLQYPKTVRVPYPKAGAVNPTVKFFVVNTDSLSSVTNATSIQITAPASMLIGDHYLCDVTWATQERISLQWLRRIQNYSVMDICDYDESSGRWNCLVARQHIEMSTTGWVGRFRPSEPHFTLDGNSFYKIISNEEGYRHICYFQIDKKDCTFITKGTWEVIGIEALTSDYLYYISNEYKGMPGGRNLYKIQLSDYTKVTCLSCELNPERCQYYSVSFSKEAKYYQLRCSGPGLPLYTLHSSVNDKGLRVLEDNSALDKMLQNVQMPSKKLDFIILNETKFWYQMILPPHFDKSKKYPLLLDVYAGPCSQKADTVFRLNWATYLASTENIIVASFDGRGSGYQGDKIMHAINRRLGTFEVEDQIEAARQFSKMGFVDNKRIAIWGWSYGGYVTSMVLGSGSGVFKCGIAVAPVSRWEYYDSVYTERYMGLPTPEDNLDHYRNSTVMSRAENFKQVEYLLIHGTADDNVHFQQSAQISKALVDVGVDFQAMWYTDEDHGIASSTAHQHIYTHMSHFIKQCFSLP
# seprase-DPPIV complex = molecular target: T2, seprase-DPPIV complex (Homo sapiens, UniProt P27487+Q12884); assay: collagen-degrading activity: peptide release from biotinylated type I collagen gel; format: biochemical; conditions: 37° C., 8 h; mAb 5 μg/ml, AEBSF 20 μM, CG1847 50 nM
# T2 construct: The seprase-DPPIV complex was isolated from WI38 RIPA extracts using mAbs D28; endogenous in cells; host or cells: WI38 human fibroblasts (RIPA extract, immuno-isolated on mAb D28 or E3 beads)
# T2 sequence (P27487 whole entry, one chain of several): as the sequence (P27487 whole entry, species assumed) above
# Experimental: FIG. 9. Collagen-degrading activity of the seprase-DPPIV complex. Collagen-degrading activities of the protease complex and purified DPPIV were determined by the release of peptide fragments from biotinylated type I collagen gel in the presence of these enzymes. The seprase-DPPIV complex was isolated from WI38 RIPA extracts using mAbs D28 (lane marked Ip Seprase) and E3 (lane marked Ip DPPIV) beads, seprase from LOX WGA fraction using mAb D28 (lane marked Ip Seprase*), MMP-2 from media conditioned by MMP-2 COS cell transfectants (lane marked MMP-2), and proteins associated with β3 integrin were from WI38 RIPA extracts using HB242 (lane marked Ip β3 integrin). All enzymes, including the protease complex, purified seprase, MMP-2, and proteins associated with β1 or β3 integrin were applied at the concentration of 50 ng/ml. […]
# Collagen-degrading activity of isolated DPPIV or seprase-DPPIV complex was determined by the release of peptide fragments from biotinylated type I collagen gel by immuno-isolated proteases or the protease complex. […]
compound,measurement,setting,value
CCN1C(=O)C=CC1=O [NEM],inhibition of seprase activity,seprase,inhibited
O=S(=O)(F)Cc1ccccc1 [PMSF],inhibition of seprase activity,seprase,inhibits
same,seprase gelatinase activity,seprase,completely blocked
N=C(N)c1ccc(CS(=O)(=O)F)cc1 [APSF],seprase gelatinase activity,seprase,completely blocked
NC(CCC(=O)NOC(=O)c1ccccc1)C(=O)N1CCCC1 (stereo not shown) [H-Glu(NHO-Bz)-Pyrr],Ki,DPPIV,500 nM
NCCc1ccc(S(=O)(=O)F)cc1 [AEBSF],degradation of collagen by the seprase-DPPIV complex,seprase-DPPIV complex,blocked
same,seprase gelatinase activity,seprase,completely blocked
